The test system of series [1] is MB49 cells. The series is described as follows: Mouse bladder cancer model, intravesical treatment (Experiment 24). The settings on record: Experiment 1; in Phosal 50, 50 microliters, 20 minutes; 2 h and 24 h. Format: in vivo. As to the method:
A set of experiments was conducted with SC12 in various solutions, in a mouse bladder cancer model.
7-9 week old C57BU6 mice were implanted with 1×10^6 MB49 cells after 0.1% poly L lysine treatment on day 0. […] On day 11, mice were sacrificed and organs were harvested.

In series [2] the test system is myeloid CD11c+/CD123− DCs. The series is described as follows: FACS, myeloid DC activation in whole blood. The conditions noted are these: 24 hours; 0.1 and 0.5 uM. Format: cell-based, human. As to the method:
The FACS analysis for donor 1 and donor 2 was made on another day than donor 3. The compound concentrations were as follows:
B cell activation: 2 and 10 uM mDC/pDC: 0.1 and 0.5 uM
The FACS analysis was used to identify whether the test compounds could induce activation of B cells, and two different subsets of dendritic cells, namely the myeloid CD11c+/CD123− DCs and the plasmacytoid CD11c−/CD123+DCs. The following markers were studied to identify the activation status of the different subsets:
The FACS staining was performed according to the manufacturer's instructions. Lysis of red blood cells was performed before FACS staining in order to minimize auto-florescence. To include as many B cells and DCs in the study as possible the FACS analyses were performed on 500,000 cells in total for each staining. A P1 gate was set only to include relevant cells on FSC vs. SSC (see FIGS. 12-15). The results of the individual analysis were present as Mean Fluorescence Intensity (MFI) values, for certain activation marker in a given gate setting, represent the actual cell subset. The isotype background values have been used to set the gates so that a maximum at 2% of unspecific stained cells could be found in the positive gates.
The analysis of myeloid DCs was based on HLA-DR+/CD11c+/CD123-cells, thus all analyzed cells was included in the HLA-DR+(P3) gate and CD11c+/CD123− (Q4) gate (see gates in FIGS. 13-15).
(A flow cytometer gives signals particle by particle.)

Series [3] relates to Cutaneous Squamous Cell Carcinoma (SCC) cell lines SCL-I, SCL-II, SCC-12, SCC-13. The conditions noted are these: FIG. 11.
Protocol: SCC cells are grown under standard conditions (10% FBS).
Time and dose dependency of effects on total cell numbers have been investigated by real-time cell analysis, which is based on continuous monitoring of electric conductance in microtiter wells (E-plates, Roche), which corresponds to the cell numbers. […] For these assays 4 cell lines may be used to obtain a representative overview on the effects on SCC cells.
In series [4] the test system is human PBMCs. The series is described as follows: IL-6 secretion in human PBMCs, two batches of Compound A and SC12 (Example 4). Format: cell-based. The settings on record: PBMCs, 10-1-0.1-0.01 micromolar.
Protocol: PBMCs were purified from two donors and plated into 96 well plates at 2×10^5 cells/well in RPMI media including human 2% heat inactivated AB serum, glutamine, Pen-strep and β-mercaptoethanol. The cells were treated with TLR7 agonists for 24 h in 4 doses. The conditioned media was removed for ELISA analyses for IL-6, and the EC50 value determined for each compound and each batch.
All compounds were tested in four concentrations (10-1-0.1-0.01 micromolar).
Concentrations of IL-6 were determined by ELISA from R&D Systems using the Microsoft Excel software. The results were analyzed in Graph Pad Prism in order to prepare dose-response curves, and for determination of EC50 values.
For series [5], the system named is mouse macrophage cell line Raw264.7. Kind of series: IL-6 and TNF-alpha secretion in Raw264.7 cells (Model 1), ELISA. Format: cell-based. Background: An ELISA detects its analyte on a solid surface through an enzyme-linked reagent.
The test system of series [6] is HLA-DR+/CD20+ B cells. The series is described as follows: FACS, B cell activation in whole blood. The settings on record: 24 hours; 2 and 10 uM. Format: cell-based, human.
Protocol: B-cells: HLA-DR/CD20/CD40
The FACS staining was performed according to the manufacturer's instructions. Lysis of red blood cells was performed before FACS staining in order to minimize auto-florescence. To include as many B cells and DCs in the study as possible the FACS analyses were performed on 500,000 cells in total for each staining. […] The results of the individual analysis were present as Mean Fluorescence Intensity (MFI) values, for certain activation marker in a given gate setting, represent the actual cell subset. The isotype background values have been used to set the gates so that a maximum at 2% of unspecific stained cells could be found in the positive gates.
The analysis of expression of the activation marker CD40 on B cells was made on double positive HLA-DR (MHC class II) (P4 gate) and CD20 cells (B cell marker) (P8 gate).
Series [7] concerns AY-27 rat bladder cancer cell-line. Kind of series: Orthotopic rat bladder cancer model, intravesical instillation.
Series [8] in a line: Intrabladder application, serum cytokines (Luminex) and histology. The series is classed as in vivo, mouse. The conditions noted are these: day 0, 2 hour time point; intravesical about 207 nmoles in 50 μl. As to the method:
Female C57BU6 mice were anesthetized with ketamine/xylazine. The 50 microliter formulated compounds were intravesically administered for twenty minutes at each treatment. The treatment schedule and doses are in Table 35 and 36, respectively. The levels of cytokines (IL-6, IL-12, and TNF-alpha) were determined by Luminex assay. Paraffin sections were prepared and H & E staining performed.

The nature of series [9]: Solubility observations in the text. The conditions noted are these: methanol, ethanol, dichloromethane, ethyl acetate, acetonitrile, acetone, chloroform.

SMILES strings stand for the structures.

Take `CC(C)Cn1cnc2c(N)nc3ccccc3c21` [Imiquimod, reference compound]: in series [1], the “serum IL-6 and TNF-alpha” value is “under the detection levels”. For the same compound, the “CD80 expression in mDCs (MFI, words)” value in series [2] is “weak expression of CD80 in donor 1 and 2”. Besides, the “cell numbers, real-time cell analysis” value in [3] is “reduced cell numbers”. Besides, the “IL-6 induction” value in [4] is listed as “only active in inducing IL-6 at the highest concentration (10 uM)”. For the same compound, the “potency as TLR7 agonist” value in series [5] is “weakest induction of IL-6 and TNF-alpha”. Further, the “CD40 expression on B cells (MFI, words)” value in series [6] is “increased expression in all three donors”. Besides, the “toxicity” value in [7] (intravesical, day 2 and 5) is “No signs of toxicity”. Besides, in [7] (of 14 per group), the “Number of rat bladders Tumor free” value is 5 and the “Number of rat bladders with pT2 Tumor” value came out at 9. The “serum IL-12” value in series [8] is “elevated levels of IL-12”.

With `COCCOc1nc(N)c2[nH]c(=O)n(Cc3ccc(C(=O)O)cc3)c2n1` [Free pharmacophore, reference compound], in series [5] (Raw 264.7, 24 hours, 7 doses, read-out: EC 50 TNF-alpha), the EC50 is 707 nM.

Regarding `COCCOc1nc(N)c2[nH]c(=O)n(Cc3ccc(C(=O)O)cc3)c2n1` [Compound 7, 4-((6-amino-2-(2-methoxyethoxy)-8-oxo-7H-purin-9(8H)-yl)methyl)benzoic acid], the “solubility in common solvents” value in [9] was “not soluble in most of the common solvents”.

The values above are taken from US20120003298A1, “METHODS FOR INDUCING AN IMMUNE RESPONSE” (priority 2010, published 2012).
